From patent publication US6803457B1, “Compounds for the treatment of ischemia” (Pfizer, Inc., priority 1999, dated 2004) come the findings set out here.

The melting point is the temperature, or range, at which the solid turns liquid. `CNC(=O)[C@H]1O[C@@H](n2cnc3c(NCc4cc(Cl)ccc4OCc4nccs4)ncnc32)[C@H](O)[C@@H]1N` [Example 27, (2S,3S,4R,5R)3-Amino-5-{6-[5-chloro-2-(thiazol-2-ylmethoxy)-benzylamino]-purin-9-yl}-4-hydroxy-tetrahydro-furan-2-carboxylic acid methylamide] registered a melting point of 208 to 209 °C. The figure for `CNC(=O)[C@H]1O[C@@H](n2cnc3c(NCc4cc(Cl)ccc4OCc4cc(OC)ccc4OC)ncnc32)[C@H](O)[C@@H]1N` [Example 7, (2S,3S,4R,5R)3-Amino-5-{6-[5-chloro-2-(2,5-dimethoxy-benzyloxy)-benzylamino]-purin-9-yl}-4-hydroxytetrahydrofuran-2-carboxylic acid methylamide] is 112 to 115 °C.

Consider `CNC(=O)[C@H]1O[C@@H](n2cnc3c(NCc4cc(Cl)ccc4OCCN4CCOCC4)ncnc32)[C@H](O)[C@@H]1N` [Example 4, (2S,3S,4R,5R)3-Amino-5-{6-[5-chloro-2-(2-morpholin-4-ylethoxy)benzylamino]-purin-9-yl}-4-hydroxytetrahydrofuran-2-carboxylic acid methylamide], for which the melting point lay in the range of 99 to 108 °C. For `CNC(=O)[C@H]1O[C@@H](n2cnc3c(NCc4cc(Cl)ccc4OCC4CCOC4)ncnc32)[C@H](O)[C@@H]1N` (stereo partly drawn) [Example 11, (2S,3S,4R,5R)3-Amino-5-{6-[5-chloro-2-(tetrahydrofuran-3-ylmethoxy)-benzylamino]-purin-9yl}-4-hydroxytetrahydrofuran-2-carboxylic acid methylamide] the value was 114 to 118 °C; for `CNC(=O)[C@H]1O[C@@H](n2cnc3c(NCc4cc(Cl)ccc4OCC4CCCC4)ncnc32)[C@H](O)[C@@H]1N` [Example 18, (2S,3S,4R,5R)3-Amino-5-[6-(5-chloro-2-cyclopentylmethoxy-benzylamino)-purin-9-yl]-4-hydroxytetrahydrofuran-2-carboxylic acid methylamide], 110.6 to 116.2 °C; for `CNC(=O)[C@H]1O[C@@H](n2cnc3c(NCc4cc(Cl)ccc4OCc4ccc5ccccc5n4)ncnc32)[C@H](O)[C@@H]1N` [Example 32, (2S,3S,4R,5R)3-Amino-5-{6-[5-chloro-2-(quinolin-2-ylmethoxy)benzylamino]purin-9-yl}-4-hydroxytetrahydrofuran-2-carboxylic acid methylamide], 130 to 134 °C. For `CNC(=O)[C@H]1O[C@@H](n2cnc3c(NCc4cc(Cl)ccc4OCc4cc5ccccc5o4)ncnc32)[C@H](O)[C@@H]1N` [Example 29, (2S,3S,4R,5R)3-Amino-5-{6-[2-(benzofuran-2-ylmethoxy)-5-chlorobenzylamino]purin-9-yl}-4-hydroxytetrahydrofuran-2-carboxylic acid methylamide] the value was 127 to 130 °C; for `CNC(=O)[C@H]1O[C@@H](n2cnc3c(NCc4cc(Cl)ccc4OCc4ccco4)ncnc32)[C@H](O)[C@@H]1N` [Example 22, (2S,3S,4R,5R)3-Amino-5-{6-(5-chloro-2-(furan-2-ylmethoxy)benzylamino]purin-9-yl}-4-hydroxytetrahydrofuran-2-carboxylic acid methylamide], 187 to 192 °C; for `CNC(=O)[C@H]1O[C@@H](n2cnc3c(NCc4cc(Cl)ccc4OCC4OC(O)C(O)C(O)C4O)ncnc32)[C@H](O)[C@@H]1N` (stereo partly drawn) [Example 2, (2S,3S,4R,5R)3-Amino-5-{6-[5-chloro-2-(3,4,5,6-tetrahydroxytetrahydropyran-2-ylmethoxy)benzylamino]purin-9-yl}-4-hydroxytetrahydrofuran-2-carboxylic acid methylamide], 212 to 218 °C. The figure for `CNC(=O)[C@H]1O[C@@H](n2cnc3c(NCc4cc(Cl)ccc4OCc4ccc(CN(C)C)o4)ncnc32)[C@H](O)[C@@H]1N` [Example 26, (2S,3S,4R,5R)3-Amino-5-{6-[5-chloro-2-(5-dimethylaminomethylfuran-2-ylmethoxy)benzylamino]purin-9-yl}-4-hydroxytetrahydrofuran-2-carboxylic acid methylamide] is 78 to 81 °C; for `CNC(=O)[C@H]1O[C@@H](n2cnc3c(NCc4cc(Cl)ccc4OCc4ccccc4Cl)ncnc32)[C@H](O)[C@@H]1N` [Example 10, (2S,3S,4R,5R)3-Amino-5-{6-[5-chloro-2-(2-chloro-benzyloxy)-benzylamino]-purin-9-yl}-4-hydroxytetrahydrofuran-2-carboxylic acid methylamide] it is 88 to 92 °C; for `CNC(=O)[C@H]1O[C@@H](n2cnc3c(NCc4cc(Cl)ccc4OCc4ccc(Cl)cc4)ncnc32)[C@H](O)[C@@H]1N` [Example 9, (2S,3S,4R,5R)3Amino-5-{6-[5-chloro-2-(4-chloro-benzyloxy)-benzylamino]-purin-9-yl}-4-hydroxytetrahydrofuran-2-carboxylic acid methylamide] it is 88 to 92 °C. In the case of `CNC(=O)[C@H]1O[C@@H](n2cnc3c(NCc4cc(Cl)ccc4OCc4ccns4)ncnc32)[C@H](O)[C@@H]1N` [Example 30, (2S,3S,4R,5R)3-Amino-5-{6-[5-chloro-2-(isothiazol-5-ylmethoxy)benzylamino]purin-9-yl}-4-hydroxytetrahydrofuran-2-carboxylic acid methylamide], the melting point was 180 to 183 °C. For `CNC(=O)[C@H]1O[C@@H](n2cnc3c(NCc4cc(Cl)ccc4OCC4CCOC4)ncnc32)[C@H](O)[C@@H]1N` (stereo partly drawn) [Example 20, (2S,3S,4R,5R)3-Amino-5-{6-[5-chloro-2-(tetrahydro-furan-3-ylmethoxy)-benzylamino]-purin-9-yl}-4-hydroxy-tetrahydro-furan-2-carboxylic acid methylamide] the value was 132 to 161 °C; for `CNC(=O)[C@H]1O[C@@H](n2cnc3c(NCc4cc(Cl)ccc4OCc4cccc(OC)c4)ncnc32)[C@H](O)[C@@H]1N` [Example 6, (2S,3S,4R,5R)3-Amino-5-{6-[5-chloro-2-(3-methoxy-benzyloxy)-benzylamino]-purin-9-yl}-4-hydroxytetrahydrofuran-2-carboxylic acid methylamide], 102 to 108 °C.

`CNC(=O)[C@H]1O[C@@H](n2cnc3c(NCc4cc(Cl)ccc4OCc4ccccc4C)ncnc32)[C@H](O)[C@@H]1N` [Example 13, (2S,3S,4R,5R)3-Amino-5-{6-[5-chloro-2-(2-methyl-benzyloxy)-benzylamino]-purin-9-yl}-4-hydroxytetrahydrofuran-2-carboxylic acid methylamide] gave a melting point of 76 to 80 °C. The figure for `CNC(=O)[C@H]1O[C@@H](n2cnc3c(NCc4cc(Cl)ccc4OCc4ccc(C)cc4)ncnc32)[C@H](O)[C@@H]1N` [Example 12, (2S,3S,4R,5R)3-Amino-5-{6-[5-chloro-2-(4-methyl-benzyloxy)-benzylamino]-purin-9-yl}-4-hydroxytetrahydrofuran-2-carboxylic acid methylamide] is 82 to 86 °C.

In turn, `CNC(=O)[C@H]1O[C@@H](n2cnc3c(NCc4cc(Cl)ccc4OCc4ccoc4)ncnc32)[C@H](O)[C@@H]1N` [Example 16, (2S,3S,4R,5R)3-Amino-5-{6-[5-chloro-2-(furan-3-ylmethoxy)benzylamino]-purin-9-yl}-4-hydroxytetrahydrofuran-2carboxylic acid methylamide] came in with a melting point of 93 to 97 °C. As to `CNC(=O)[C@H]1O[C@@H](n2cnc3c(NCc4cc(Cl)ccc4OCc4cc(C)oc4C)ncnc32)[C@H](O)[C@@H]1N` [Example 24, (2S,3S,4R,5R)3-Amino-5-{6-[5-chloro-2-(2,5-dimethylfuran-3-ylmethoxy)benzylamino]purin-9-yl}-4-hydroxytetrahydrofuran-2-carboxylic acid methylamide], the melting point is 85 to 88 °C. Turning to `CNC(=O)[C@H]1O[C@@H](n2cnc3c(NCc4cc(Cl)ccc4OCc4cccnc4)ncnc32)[C@H](O)[C@@H]1N` [Example 25, (2S,3S,4R,5R)3-Amino-5-{6-[5-chloro-2-(pyridin-3-ylmethoxy)benzylamino]purin-9-yl}-4-hydroxytetrahydrofuran-2-carboxylic acid methylamide], the melting point is 200 to 218 °C. The figure for `CNC(=O)[C@H]1O[C@@H](n2cnc3c(NCc4cc(Cl)ccc4OCc4ccccc4OC)ncnc32)[C@H](O)[C@@H]1N` [Example 15, (2S,3S,4R,5R)3-Amino-5-{6-[5-chloro-2-(2-methoxybenzyloxy)benzylamino]-purin-9-yl}-4-hydroxytetrahydrofuran-2-carboxylic acid methylamide] is 102 to 123 °C. The figure for `CNC(=O)[C@H]1O[C@@H](n2cnc3c(NCc4cc(Cl)ccc4OCc4snnc4C)ncnc32)[C@H](O)[C@@H]1N` [Example 33, (2S,3S,4R,5R)3-Amino-5-{6-[5-chloro-2-(4-methyl-[1,2,3]thiadiazol-5-ylmethoxy)benzylamino]purin-9-yl}-4-hydroxytetrahydrofuran-2-carboxylic acid methylamide] is 107 to 110 °C. The figure for `CNC(=O)[C@H]1O[C@@H](n2cnc3c(NCc4cc(Cl)ccc4OCc4cccc(Cl)c4)ncnc32)[C@H](O)[C@@H]1N` [Example 8, (2S,3S,4R,5R)3-Amino-5-{6-[5-chloro-2-(3-chloro-benzyloxy)-benzylamino]-purin-9-yl}-4-hydroxytetrahydrofuran-2-carboxylic acid methylamide] is 85 to 90 °C; for `CNC(=O)[C@H]1O[C@@H](n2cnc3c(NCc4cc(Cl)ccc4OCc4nc5ccccc5s4)ncnc32)[C@H](O)[C@@H]1N` [Example 28, (2S,3S,4R,5R)3-Amino-5-{6-[2-(benzothiazol-2-ylmethoxy)-5-chlorobenzylamino]purin-9-yl}-4-hydroxytetrahydrofuran-2-carboxylic acid methylamide] it is 127 to 129 °C; for `CNC(=O)[C@H]1O[C@@H](n2cnc3c(NCc4cc(Cl)ccc4OCc4cccs4)ncnc32)[C@H](O)[C@@H]1N` [Example 31, (2S,3S,4R,5R)3-Amino-5-{6-[5-chloro-2-(thiophen-2-ylmethoxy)benzylamino]purin-9-yl}-4-hydroxytetrahydrofuran-2-carboxylic acid methylamide] it is 135 to 141 °C.
